We go through 23 compounds from patent US12473304B2, “Heterocyclic PAD4 inhibitors” (BRISTOL-MYERS SQUIBB COMPANY, priority 2020, dated 2025).

A word on the IC50: it is the concentration that inhibits the measured activity by half.

In the assay the target is human PAD4 (hPAD4) (Homo sapiens (Human), UniProt Q9UM07). Briefly: RFMS Human PAD4 Functional Assay 1. In kind it is biochemical. The following applies: RFMS assay 1; 5 nM hPAD4, 250 μM BAEE substrate, 50 μM calcium, 37° C. An outline of the steps: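 Recombinant hPAD4 (5 nM) was preincubated with compound (top 50 μM, 0.5% DMSO) for 30 min at 37 °C, then reacted with 250 μM BAEE for 90 min at 37 °C in pH 7.5 HEPES buffer with 50 μM calcium and 5 μM TPEN. Product was derivatized with phenyl glyoxal and quantified by RapidFire MS.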
human PAD4 (hPAD4), sequence (Q9UM07 whole entry): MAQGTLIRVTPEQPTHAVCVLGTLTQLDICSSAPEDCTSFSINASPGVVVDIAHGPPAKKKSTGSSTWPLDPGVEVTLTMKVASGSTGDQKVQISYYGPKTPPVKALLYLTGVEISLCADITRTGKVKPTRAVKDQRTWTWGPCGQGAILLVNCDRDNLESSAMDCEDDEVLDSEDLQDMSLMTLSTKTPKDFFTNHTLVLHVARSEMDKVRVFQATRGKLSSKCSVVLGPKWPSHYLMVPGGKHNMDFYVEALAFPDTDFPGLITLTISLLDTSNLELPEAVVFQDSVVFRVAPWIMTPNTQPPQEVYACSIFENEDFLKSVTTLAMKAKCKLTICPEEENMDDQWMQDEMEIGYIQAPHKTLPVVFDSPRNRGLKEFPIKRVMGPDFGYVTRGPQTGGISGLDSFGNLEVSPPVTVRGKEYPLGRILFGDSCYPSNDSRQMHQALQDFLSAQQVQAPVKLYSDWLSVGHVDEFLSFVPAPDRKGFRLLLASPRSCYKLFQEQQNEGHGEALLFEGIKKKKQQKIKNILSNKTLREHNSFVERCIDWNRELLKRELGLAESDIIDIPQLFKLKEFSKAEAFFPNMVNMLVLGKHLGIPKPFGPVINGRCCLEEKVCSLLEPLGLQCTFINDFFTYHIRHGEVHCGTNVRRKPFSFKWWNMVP
As for `Cc1c(O)cccc1-c1ccc2cc(-c3nn4cc(C(=O)N5CC6CCC5[C@@H]6N)cc(F)c4c3C)n(CC3CC3)c2n1` (stereo partly drawn) [Example 259, 3-(2-{6-[(7R)-7-Amino-2-azabicyclo[2.2.1]heptane-2-carbonyl]-4-fluoro-3-methylpyrazolo[1,5-a]pyridin-2-yl}-1-(cyclopropylmethyl)-1H-pyrrolo[2,3-b]pyridin-6-yl)-2-methylphenol], the concentration for half-maximal inhibition (IC50) was 20 nM.
`Cc1c(-c2cc3cccc(OC[C@@H]4CCC(=O)N4)c3n2CC2CC2)nn2cc(C(=O)N3CCC[C@@H](N)C3)ccc12` [Example 584, (S)-5-(((2-(6-((R)-3-Aminopiperidine-1-carbonyl)-3-methylpyrazolo[1,5-a]pyridin-2-yl)-1-(cyclopropylmethyl)-1H-indol-7-yl)oxy)methyl)pyrrolidin-2-one]: the IC50 worked out at 50 nM.
The figure for `COc1cc(C(=O)N2CCC[C@@H](N)C2)cn2nc(-c3cc4cccc(C5CCN(C(=O)[C@H]6CC[C@H](O)CC6)CC5)c4n3CC3CC3)c(C)c12` [Example 408, ((R)-3-Aminopiperidin-1-yl)(2-(1-(cyclopropylmethyl)-7-(1-((1r,4r)-4-hydroxycyclohexane-1-carbonyl)piperidin-4-yl)-1H-indol-2-yl)-4-methoxy-3-methylpyrazolo[1,5-a]pyridin-6-yl)methanone] is 40 nM; for `Cc1c(-c2cc3cc(F)cc(C4CCN(C(=O)CC(C)C)CC4)c3n2CC2CC2)nn2cc(C(=O)N3C[C@H](N)C[C@@H](F)C3)ccc12` [Example 495, 1-(4-(2-(6-((3R,5R)-3-Amino-5-fluoropiperidine-1-carbonyl)-3-methylpyrazolo[1,5-a]pyridin-2-yl)-1-(cyclopropylmethyl)-5-fluoro-1H-indol-7-yl)piperidin-1-yl)-3-methylbutan-1-one] it is 330 nM; for `COc1cc(C(=O)N2C[C@H](N)C[C@@H](F)C2)cn2nc(-c3cc4ccc(-c5ccn6c(C)nnc6c5)nc4n3CC3CC3)c(C)c12` [Example 21, ((3R,5R)-3-Amino-5-fluoropiperidin-1-yl)(2-(1-(cyclopropylmethyl)-6-(3-methyl-[1,2,4]triazolo[4,3-a]pyridin-7-yl)-1H-pyrrolo[2,3-b]pyridin-2-yl)-4-methoxy-3-methylpyrazolo[1,5-a]pyridin-6-yl)methanone] it is 91 nM.
As for `COCC(=O)N1CCC(c2cccc3cc(-c4nn5cc(C(=O)N6CC7CCC6[C@@H]7N)ccc5c4C)n(CC4CC4)c23)CC1` (stereo partly drawn) [Example 453, 1-(4-(2-(6-((7R)-7-amino-2-azabicyclo[2.2.1]heptane-2-carbonyl)-3-methylpyrazolo[1,5-a]pyridin-2-yl)-1-(cyclopropylmethyl)-1H-indol-7-yl)piperidin-1-yl)-2-methoxyethan-1-one], the IC50 turned out to be 10 nM.
For the compound `Cc1c(-c2cc3cccc(OC[C@@H]4CCC(=O)N4)c3n2CC2CC2)nn2cc(C(=O)N3CCC[C@@H](N)C3)cc(F)c12` [Example 569, (S)-5-(((2-(6-((R)-3-Aminopiperidine-1-carbonyl)-4-fluoro-3-methylpyrazolo[1,5-a]pyridin-2-yl)-1-(cyclopropylmethyl)-1H-indol-7-yl)oxy)methyl)pyrrolidin-2-one], the IC50 was 20 nM.
On to `Cc1c(-c2cc3ccc(-c4ccc5[nH]ccc5c4)cc3n2CC2CC2)nn2cc(C(=O)N3CCC[C@@H](N)C3)ccc12` [Example 345, (3R)-1-{2-[1′-(Cyclopropylmethyl)-1H,1′H-[5,6′-biindole]-2′-yl]-3-methylpyrazolo[1,5-a]pyridine-6-carbonyl}piperidin-3-amine], for which the IC50 turned out to be 790 nM.
For the compound `Cc1c(-c2cc3cccnc3n2CC2CC2)nn2cc(C(=O)N3C[C@H](N)C[C@@H](F)C3)cc(F)c12` [Example 52, ((3R,5R)-3-Amino-5-fluoropiperidin-1-yl)(2-(1-(cyclopropylmethyl)-1H-pyrrolo[2,3-b]pyridin-2-yl)-4-fluoro-3-methylpyrazolo[1,5-a]pyridin-6-yl)methanone], the IC50 is 882 nM.
Consider `COC1CCN(c2ccc3cc(-c4oc5cc(C(=O)N6CC7CCC6[C@@H]7N)ccc5c4C)n(CC4CC4)c3c2)CC1` (stereo partly drawn) [Example 189, ((7R)-7-Amino-2-azabicyclo[2.2.1]heptan-2-yl)(2-(1-(cyclopropylmethyl)-6-(4-methoxypiperidin-1-yl)-1H-indol-2-yl)-3-methylbenzofuran-6-yl)methanone], for which the IC50 is 30 nM.
Take `COc1cc(C(=O)N2CCC[C@@H](N)C2)cn2nc(-c3cc4ccc(-c5ccccc5CO)cc4n3CC3CC3)c(C)c12` [Example 233, [2-(2-{6-[(3R)-3-Aminopiperidine-1-carbonyl]-4-methoxy-3-methylpyrazolo[1,5-a]pyridin-2-yl}-1-(cyclopropylmethyl)-1H-indol-6-yl)phenyl]methanol]: the half-inhibitory concentration (IC50) worked out at 620 nM.
The figure for `COc1cc(C(=O)N2C[C@H](N)C[C@@H](F)C2)cn2nc(-c3cc4cccc(C5CN(C(=O)C(C)(C)OC)C5)c4n3CC3CC3)c(C)c12` [Example 518, 1-(3-(2-(6-((3R,5R)-3-Amino-5-fluoropiperidine-1-carbonyl)-4-methoxy-3-methylpyrazolo[1,5-a]pyridin-2-yl)-1-(cyclopropylmethyl)-1H-indol-7-yl)azetidin-1-yl)-2-methoxy-2-methylpropan-1-one] is 260 nM; for `COc1cc(C(=O)N2CC3CCC2[C@@H]3N)cn2nc(-c3cc4ccc(-c5ccc6c(c5)CNC6=O)nc4n3CC3CC3)c(C)c12` (stereo partly drawn) [Example 5, 5-(2-(6-((7R)-7-Amino-2-azabicyclo[2.2.1]-heptane-2-carbonyl)-4-methoxy-3-methylpyrazolo[1,5-a]pyridin-2-yl)-1-(cyclopropylmethyl)-1H-pyrrolo[2,3-b]pyridin-6-yl)isoindolin-1-one] it is 27 nM; for `Cc1c(-c2cc3ccc(-c4ccc5cn[nH]c5c4)nc3n2CC2CC2)nn2cc(C(=O)N3CC4CCC3[C@@H]4N)ccc12` (stereo partly drawn) [Example 298, (7R)-2-{2-[1-(Cyclopropylmethyl)-6-(1H-indazol-6-yl)-1H-pyrrolo[2,3-b]pyridin-2-yl]-3-methylpyrazolo[1,5-a]pyridine-6-carbonyl}-2-azabicyclo[2.2.1]heptan-7-amine] it is 210 nM.
For `COc1cc(C(=O)N2C[C@H](N)C[C@@H](F)C2)cn2nc(-c3cc4ccc(-c5cccc(CNC(C)=O)c5)cc4n3CC3CC3)c(C)c12` [Example 215, N-{[3-(2-{6-[(3R,5R)-3-Amino-5-fluoropiperidine-1-carbonyl]-4-methoxy-3-methylpyrazolo[1,5-a]pyridin-2-yl}-1-(cyclopropylmethyl)-1H-indol-6-yl)phenyl]methyl}acetamide], the IC50 worked out at 610 nM.
The figure for `COc1cc(C(=O)N2CC3CCC2[C@@H]3N)cc2oc(-c3cc4ccc(C5CC5)cc4n3CC3CC3)c(C)c12` (stereo partly drawn) [Example 156, ((7R)-7-Amino-2-azabicyclo[2.2.1]heptan-2-yl)(2-(6-cyclopropyl-1-(cyclopropylmethyl)-1H-indol-2-yl)-4-methoxy-3-methylbenzofuran-6-yl)methanone] is 173 nM; for `COc1cc(C(=O)N2C[C@H](N)C[C@@H](F)C2)cn2nc(-c3cc4ccnc(OCCn5ccnc5C)c4n3CC3CC3)c(C)c12` [Example 594, ((3R,5R)-3-Amino-5-fluoropiperidin-1-yl)(2-(1-(cyclopropylmethyl)-7-(2-(2-methyl-1H-imidazol-1-yl)ethoxy)-1H-pyrrolo[2,3-c]pyridin-2-yl)-4-methoxy-3-methylpyrazolo[1,5-a]pyridin-6-yl)methanone] it is 390 nM.
With `Cc1c(-c2cc3ccc(-c4ccc(C(N)=O)c(F)c4)nc3n2CC2CC2)nn2cc(C(=O)N3CCC[C@@H](N)C3)cc(F)c12` [Example 279, 4-(2-{6-[(3R)-3-Aminopiperidine-1-carbonyl]-4-fluoro-3-methylpyrazolo[1,5-a]pyridin-2-yl}-1-(cyclopropylmethyl)-1H-pyrrolo[2,3-b]pyridin-6-yl)-2-fluorobenzamide], the IC50 amounted to 200 nM.
In the case of `Cc1c(-c2cc3ccc(Cl)nc3n2CC2CC2)nn2cc(C(=O)N3C[C@H](N)C[C@@H](F)C3)cc(F)c12` [Example 53, ((3R,5R)-3-Amino-5-fluoropiperidin-1-yl)(2-(6-chloro-1-(cyclopropylmethyl)-1H-pyrrolo[2,3-b]pyridin-2-yl)-4-fluoro-3-methylpyrazolo[1,5-a]pyridin-6-yl)methanone], the IC50 worked out at 446 nM.
In the case of `COc1cc(C(=O)N2CCC[C@@H](N)C2)cn2nc(-c3cc4ccc(N5CC(N(C)S(C)(=O)=O)C5)cc4n3CC3CC3)c(C)c12` [Example 256, N-[1-(2-{6-[(3R)-3-Aminopiperidine-1-carbonyl]-4-methoxy-3-methylpyrazolo[1,5-a]pyridin-2-yl}-1-(cyclopropylmethyl)-1H-indol-6-yl)azetidin-3-yl]-N-methylmethanesulfonamide], the IC50 is 330 nM.
The figure for `Cc1c(-c2cc3ccc(-c4ccc5c(c4)C(=O)NC5)nc3n2CC2CC2)oc2cc(C(=O)N3C[C@H](N)C[C@@H](F)C3)ccc12` [Example 175, 6-(2-(6-((3R,5R)-3-Amino-5-fluoropiperidine-1-carbonyl)-3-methylbenzofuran-2-yl)-1-(cyclopropylmethyl)-1H-pyrrolo[2,3-b]pyridin-6-yl)isoindolin-1-one] is 830 nM.
The figure for `Cc1c(-c2cc3ccc(-c4cccc(CO)c4)cc3n2CC2CC2)nn2cc(C(=O)N3CCC[C@@H](N)C3)ccc12` [Example 344, [3-(2-{6-[(3R)-3-Aminopiperidine-1-carbonyl]-3-methylpyrazolo[1,5-a]pyridin-2-yl}-1-(cyclopropylmethyl)-1H-indol-6-yl)phenyl]methanol] is 470 nM.
Regarding `COC1CCN(c2ccc3cc(-c4nn5cc(C(=O)N6CCC[C@@H](N)C6)cc(Cl)c5c4C)n(CC4CC4)c3n2)CC1` [Example 276, (3R)-1-{4-Chloro-2-[1-(cyclopropylmethyl)-6-(4-methoxypiperidin-1-yl)-1H-pyrrolo[2,3-b]pyridin-2-yl]-3-methylpyrazolo[1,5-a]pyridine-6-carbonyl}piperidin-3-amine], the IC50 is 2770 nM.
